According to patent US20100168182A1, “COMPOUNDS AND COMPOSITIONS AS KINASE INHIBITORS” (IRM LLC, priority 2006, published 2010):

Columns and labels:
[1] = target: T1, Ba/F3 cells transformed with human Tel-TrkB (ETV6-NTRK2) (Homo sapiens, UniProt Q16620); test: Inhibition of cellular TrkB dependent proliferation (Ba/F3 Tel-TrkB); format: cell-based; details: urea versus amide linkage
T1 construct: expressed in transfected cells; host or cells: Ba/F3 murine hematopoietic progenitor cell line; the other entry of the earlier key: ETV6 (P41212, Transcription factor ETV6)
Experimental: (§1) Inhibition of Cellular TrkA, trkB or TrkC Dependent Proliferation
(§2) The cell line used is the Ba/F3 murine hematopoietic progenitor cell line transformed with human Tel-TrkA, Tel-TrkB or Tel-TrkC cDNAs (Ba/F3 EN A/B/C). These cells are maintained in RPMI/10% fetal bovine serum (RPMI/F B S) supplemented with penicillin 50 μg/mL, streptomycin 50 μg/mL and L-glutamine 200 mM. Untransformed Ba/F3 cells are similarly maintained with the addition 5 ng/ml of murine recombinant IL3.
(§3) 50 μl of a Ba/F3 or Ba/F3 EN A/B/C cell suspension are plated in Greiner 384 well microplates (white) at a density of 2000 cells per well. 50 nl of serially diluted test compound (1 0-0.0001 mM in DMSO solution) is added to each well. […] The emited luminiscence is quantified using the Acquest™ system (Molecular Devices).
(§4) Compounds of the invention are tested for their antiproliferative effect on Ba/F3 cells expressing either Tel-TrkA, Tel-TrkB or Tel-TrkC and an additional panel of 34 selected diverse kinases activated by fusion to the dimerizing partners Bcr or Tel (Abl, AlK, BMX, EphA3, EphB2, FGFR2, FGFR3, FGFR4, FGR, FLT1, FLT3, FLT4, FMS, IGF1R, InsR, JAK1, JAK2, JAK3, KDR, Kit, Lck, Lyn, MER, MET, PDGFRb, RET, RON, Ros-1, Src, Syk, TIE2, TYK2, Tie1, ZAP70). […] The IC50 values of the compounds in the different cell lines were determined from the dose response curves obtained as describe above.

[2] = Measuring bioavailability: plasma concentration in mice; format: in vivo, male Balb/c mice; details: ratio compound 17 / compound A
Experimental: Five- to six-week old male Balb/c mice are housed at room temperature (18 to 22° C.) and humidity in the range 40-70%. The animal weights at the time of compound administration range from 20 to 25 grams. The mice are fed a normal diet and have free access to water at all times, before and during experiments. Fasted animals are studied on an infrequent basis. To maximize drug absorption via oral gavage and/or study food effects, animals are fasted the night before dosing and 4 hours thereafter. Animal experiments are performed according to the Animal Welfare Act and the Guide for the Care and Use of Laboratory Animals approved by the Institutional Animal Care and Use Committee (IACUC).
Test compounds are dissolved in a vehicle for dosing at a final concentration of 0.5 to 10 mg/mL. Test compounds are dosed intravenously via the lateral tail vein and orally using a gavage needle. Dosing procedures, dosing volumes, and the selection of dosing vehicles or formulations adhered to the Guidelines issued by the Novartis Pharmacology Council entitled “Preparation and Administration of Experimental Formulation in Pre-ESC Phase”. Briefly, i.v. doses are administered in solutions that are neutral and isotonic aqueous based and oral doses are administered in either solution (with or without co-solvent) or suspension.
Blood samples are drawn via retro orbital sinus. For ease of handling, animals are sometimes anesthetized under isoflurane vapor. Approximately five 50 μl samples of blood are removed each sampling time.
Pharmacokinetic parameters are calculated by non-compartmental regression analysis using Winnonlin 4.0 software (Pharsight, Mountain View, Calif., USA). The typical intravenous and oral dosing study in mice would results in the reporting of the following pharmacokinetic parameters: i.v. dosing: Vss, CL, AUC, Cmax, Tmax, Clast, Tlast and T1/2; and p.o. dosing: F, AUC, Cmax, Tmax, Clast, Tlast and T1/2.

[3] = target: T2, Ba/F3 cells transformed with human Tel-TrkA (ETV6-NTRK1) (Homo sapiens, UniProt P04629); test: Inhibition of cellular TrkA dependent proliferation (Ba/F3 Tel-TrkA); format: cell-based; details: urea versus amide linkage
T2 construct: expressed in transfected cells; host or cells: Ba/F3 murine hematopoietic progenitor cell line; the other entry of the earlier key: ETV6 (P41212, Transcription factor ETV6)
Experimental: as §1, §2, §3, §4

[4] = test system: Ba/F3 cells transformed with human Tel-TrkC (ETV6-NTRK3); test: Inhibition of cellular TrkC dependent proliferation (Ba/F3 Tel-TrkC); format: cell-based; details: urea versus amide linkage
Experimental: as §1, §2, §3, §4

T1 sequence (Q16620 538-822 limits assumed): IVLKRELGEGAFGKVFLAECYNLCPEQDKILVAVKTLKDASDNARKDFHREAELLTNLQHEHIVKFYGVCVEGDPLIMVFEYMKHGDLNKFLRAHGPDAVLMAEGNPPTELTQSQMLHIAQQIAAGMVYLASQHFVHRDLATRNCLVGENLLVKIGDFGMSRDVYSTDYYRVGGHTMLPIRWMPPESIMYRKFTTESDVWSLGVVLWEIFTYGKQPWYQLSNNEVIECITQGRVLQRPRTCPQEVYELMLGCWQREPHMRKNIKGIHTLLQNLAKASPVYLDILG
T2 sequence (P04629 510-796 limits assumed): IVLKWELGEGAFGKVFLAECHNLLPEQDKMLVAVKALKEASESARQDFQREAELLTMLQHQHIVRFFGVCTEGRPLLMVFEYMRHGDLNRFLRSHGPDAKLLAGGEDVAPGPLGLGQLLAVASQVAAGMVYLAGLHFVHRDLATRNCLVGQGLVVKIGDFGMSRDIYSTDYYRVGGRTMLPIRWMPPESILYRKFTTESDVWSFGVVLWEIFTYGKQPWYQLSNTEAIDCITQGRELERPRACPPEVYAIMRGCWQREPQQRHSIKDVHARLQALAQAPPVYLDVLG

Structure (SMILES)	melting point	potency for TrkB relative to the equivalent amide-linked compound (compound A) [1]	plasma concentration relative to compound A ([2]; at 30 minutes)	plasma concentration relative to compound A ([2]; at 1 hour)	plasma concentration relative to compound A ([2]; at 3 hours)	plasma concentration relative to compound A ([2]; at 5 hours)	potency for TrkA relative to the equivalent amide-linked compound (compound A) [3]	potency for TrkC relative to the equivalent amide-linked compound (compound A) [4]
O=C(Nc1cccc(Nc2ccc3c(c2)NC(=O)/C3=C\c2ccc[nH]2)c1)Nc1cccc(C(F)(F)F)c1 [Example 1, 1-{3-[2-oxo-3-(1H-pyrrol-2-ylmethylene)-2,3-dihydro-1H-indol-6-ylamino]phenyl}-3-(3-trifluoromethylphenyl)urea]	253 to 256 °C							
O=C(Nc1cccc(Nc2ccc3c(c2)NC(=O)/C3=C\c2ccc[nH]2)c1)Nc1cc(F)c(F)cc1F [Example 3, 1-{3-[2-oxo-3-(1H-pyrrol-2-ylmethylene)-2,3-dihydro-1H-indol-6-ylamino]phenyl}-3-(2,4,5-trifluorophenyl)urea]	224 to 226 °C							
O=C(Nc1cccc(Nc2ccc3c(c2)NC(=O)/C3=C\c2ccc[nH]2)c1)Nc1ccc(F)cc1F [Compound 17, 1-(2,4-Difluoro-phenyl)-3-{3-[2-oxo-3-(1H-pyrrol-2-ylmethylene)-2,3-dihydro-1H-indol-6-ylamino]-phenyl}-urea]		at least 132 fold	2.2 times	4.1 times	4.7 times	2.3 times	at least 132 fold	at least 132 fold
